Key:
[1] = target: T1, EPAC1 (Homo sapiens, UniProt O95398); assay: Rap1 activation assay in HEK293/EPAC1 cells; assay type: cell-based
T1 sequence (O95398 1-923): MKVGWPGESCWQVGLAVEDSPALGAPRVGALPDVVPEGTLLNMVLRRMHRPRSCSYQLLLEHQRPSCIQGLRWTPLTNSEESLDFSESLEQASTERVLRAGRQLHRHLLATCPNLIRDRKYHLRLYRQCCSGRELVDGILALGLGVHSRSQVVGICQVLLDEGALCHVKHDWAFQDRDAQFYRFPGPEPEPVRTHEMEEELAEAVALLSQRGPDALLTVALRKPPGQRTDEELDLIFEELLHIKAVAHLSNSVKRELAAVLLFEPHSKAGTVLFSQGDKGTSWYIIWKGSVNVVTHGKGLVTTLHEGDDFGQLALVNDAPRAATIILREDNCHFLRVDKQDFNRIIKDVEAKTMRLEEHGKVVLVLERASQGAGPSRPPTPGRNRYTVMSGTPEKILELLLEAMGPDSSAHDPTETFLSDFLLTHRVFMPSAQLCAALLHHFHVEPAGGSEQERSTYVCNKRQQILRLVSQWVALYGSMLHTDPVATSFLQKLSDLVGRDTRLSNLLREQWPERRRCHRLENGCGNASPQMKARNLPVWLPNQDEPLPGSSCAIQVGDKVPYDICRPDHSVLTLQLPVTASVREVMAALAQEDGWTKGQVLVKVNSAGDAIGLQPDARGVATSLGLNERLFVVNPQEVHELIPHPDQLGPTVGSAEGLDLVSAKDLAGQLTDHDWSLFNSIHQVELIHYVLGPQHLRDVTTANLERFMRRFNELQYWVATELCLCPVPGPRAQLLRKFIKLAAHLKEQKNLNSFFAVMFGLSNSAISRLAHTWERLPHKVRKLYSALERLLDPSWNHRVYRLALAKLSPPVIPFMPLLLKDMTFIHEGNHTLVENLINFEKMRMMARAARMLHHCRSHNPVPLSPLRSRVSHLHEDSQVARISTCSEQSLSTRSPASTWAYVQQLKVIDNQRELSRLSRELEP
Procedure: FIGS. 9A-9B. Effects of EPAC2-specific antagonists on 007-AM-mediated cellular activation of Rap1. […] GTP-bound Rap1 (Rap1GTP) obtained by a Ral-GDSRBD-GST pull-down assay and total cellular Rap1 were detected by immunoblotting with Rap1-specific antibody. […] At test was used to determine statistical significance (*P<0.05).
Cellular activation of Rap1 was determined by pull-down of lysates derived from human vascular smooth muscle cell and HEK293 cells stably expressing EPAC1 or EPAC2 employing Ral-GDS-RBD-GST affinity beads as described earlier (Mei and Cheng (2005) Molecular Biosystems 1: 325-331).

[2] = target: T2, EPAC2 (Homo sapiens, UniProt Q8WZA2); assay: Phosphorylation of Akt in HEK293/EPAC2 cells; assay type: cell-based; settings: 10 μM for 5 min before 007-AM
T2 construct: HEK293 cells that ectopically express full-length EPAC2 proteins; expressed in transfected cells; host or cells: HEK293
T2 sequence (Q8WZA2 whole entry, species assumed): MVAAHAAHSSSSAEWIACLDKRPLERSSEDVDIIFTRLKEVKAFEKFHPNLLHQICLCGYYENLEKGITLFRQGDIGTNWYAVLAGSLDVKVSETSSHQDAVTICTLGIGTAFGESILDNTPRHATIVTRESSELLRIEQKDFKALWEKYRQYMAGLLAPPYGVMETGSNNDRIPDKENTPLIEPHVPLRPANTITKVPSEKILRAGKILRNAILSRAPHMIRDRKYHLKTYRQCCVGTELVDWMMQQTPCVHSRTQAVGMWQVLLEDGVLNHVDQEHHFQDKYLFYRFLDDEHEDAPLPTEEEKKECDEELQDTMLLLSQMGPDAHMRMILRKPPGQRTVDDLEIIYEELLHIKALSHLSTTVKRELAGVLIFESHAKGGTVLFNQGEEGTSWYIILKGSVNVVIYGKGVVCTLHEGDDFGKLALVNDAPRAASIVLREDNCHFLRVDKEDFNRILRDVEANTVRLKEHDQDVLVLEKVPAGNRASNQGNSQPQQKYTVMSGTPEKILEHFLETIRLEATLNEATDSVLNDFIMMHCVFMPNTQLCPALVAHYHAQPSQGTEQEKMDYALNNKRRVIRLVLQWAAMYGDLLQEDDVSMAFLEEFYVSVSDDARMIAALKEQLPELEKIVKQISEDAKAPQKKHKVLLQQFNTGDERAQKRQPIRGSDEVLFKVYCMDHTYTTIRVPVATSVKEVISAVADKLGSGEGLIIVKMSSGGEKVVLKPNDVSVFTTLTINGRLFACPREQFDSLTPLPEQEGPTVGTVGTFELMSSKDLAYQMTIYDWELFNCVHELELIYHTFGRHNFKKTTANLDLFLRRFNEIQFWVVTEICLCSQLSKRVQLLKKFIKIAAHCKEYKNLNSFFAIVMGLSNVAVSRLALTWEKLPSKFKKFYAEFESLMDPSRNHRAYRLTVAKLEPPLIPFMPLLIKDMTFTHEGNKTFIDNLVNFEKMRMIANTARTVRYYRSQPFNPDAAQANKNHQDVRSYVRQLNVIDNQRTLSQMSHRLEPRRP
Procedure: FIG. 10. Effect of ESI-09 on EPAC-mediated PKB phosphorylation in HEK293/EPAC1, HEK293/EPAC2, and human vascular smooth muscle (hVSMC) cells. Serum-starved HEK293/EPAC1, HEK293/EPAC2, and hVSMC cells with or without pretreatment of […] ESI-09 were stimulated with 10 μM 007-AM. Cell lysates were subjected to Western blot analysis as described under “Experimental Procedures” using anti-phospho-Ser473-specific (PKB-P473) and anti-phospho-Thr308-specific (PKB-P308) PKB antibodies.
Cellular proteins from cell lysates treated with various reagents were separated by SDS-PAGE and transferred to polyvinylidene difluoride membrane. The levels of Akt activation were probed by immuno-blotting analyses using anti-phosphate T308 PKB antibodies (1:1000) and anti-phosphate S473 PKB antibodies (1:1000). At least three independent experiments were performed for each Western blot.

[3] = In vivo pharmacokinetic study, blood time-concentration curve; settings: single IP injection 10 mg/kg, mice
Procedure: FIG. 19. Mice blood time-concentration curve of ESI-09.
To determine the bioavailability of EPAC inhibitors, an IP injection formulation was developed in which the compounds were dissolved in ethanol and then diluted 1:10 with a 10% Tween 80 in normal saline solution. This formulation was determined suitable by passing the simulated in vivo blood dilution assay. In vivo pharmacokinetic studies were performed in four week old female C57BL6/N mice.

[4] = target: T3, EPAC2 (Mus musculus, UniProt Q9EQZ6); assay: Rap1-GDP exchange (GEF) activity assay, EPAC2
T3 sequence (Q9EQZ6 1-1011): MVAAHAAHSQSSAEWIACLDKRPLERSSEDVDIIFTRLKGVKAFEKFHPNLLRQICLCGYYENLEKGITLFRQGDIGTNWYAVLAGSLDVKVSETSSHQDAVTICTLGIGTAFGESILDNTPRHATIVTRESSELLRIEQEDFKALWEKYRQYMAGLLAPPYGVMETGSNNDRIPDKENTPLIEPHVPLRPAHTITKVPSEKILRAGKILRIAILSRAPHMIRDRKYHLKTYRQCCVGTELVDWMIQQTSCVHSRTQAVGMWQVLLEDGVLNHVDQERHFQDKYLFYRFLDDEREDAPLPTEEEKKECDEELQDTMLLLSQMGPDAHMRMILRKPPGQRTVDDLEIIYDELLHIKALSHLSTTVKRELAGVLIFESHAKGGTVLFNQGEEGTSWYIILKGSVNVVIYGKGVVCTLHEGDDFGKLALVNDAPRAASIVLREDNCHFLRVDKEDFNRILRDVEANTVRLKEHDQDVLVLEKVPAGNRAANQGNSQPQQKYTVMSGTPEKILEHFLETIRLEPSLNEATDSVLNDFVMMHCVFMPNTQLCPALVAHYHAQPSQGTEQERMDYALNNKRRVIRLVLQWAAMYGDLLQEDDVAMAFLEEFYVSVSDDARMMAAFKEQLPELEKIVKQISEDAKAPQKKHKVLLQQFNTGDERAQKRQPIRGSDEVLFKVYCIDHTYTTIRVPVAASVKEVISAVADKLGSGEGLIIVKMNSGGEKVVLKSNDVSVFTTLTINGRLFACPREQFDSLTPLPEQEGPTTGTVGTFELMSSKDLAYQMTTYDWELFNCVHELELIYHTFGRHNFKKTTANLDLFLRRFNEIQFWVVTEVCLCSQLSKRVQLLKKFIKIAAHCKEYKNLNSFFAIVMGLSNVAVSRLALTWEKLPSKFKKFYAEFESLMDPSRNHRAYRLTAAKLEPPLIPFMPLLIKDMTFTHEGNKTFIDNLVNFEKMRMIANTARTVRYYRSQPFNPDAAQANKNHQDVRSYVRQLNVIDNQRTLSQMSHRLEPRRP
Procedure: Exchange of Mant-GDP by GDP was measured as a decrease in fluorescence intensity over time using a FluoroMax-3 spectrofluorometer with excitation/emission wavelengths set at 366/450 nm. Typically, decay in the fluorescence intensity was recorded over a time course of 6000 s with data points taken every 60 s.

CC(C)(C)c1cc(C(=O)C(C#N)=NNc2cccc(Cl)c2)no1 [ESI-09, 3-(5-Tert-Butyl-Isoxazol-3-Yl)-2-[(3-Chlorophenyl)-Hydrazono]-3-Oxo-Propionitrile]
007-AM induced Rap1 activation [1]: effective | EPAC2-mediated Akt phosphorylation (T308 and S473) [2]: completely blocked | half-life ([3]; female, C57BL6/N, mouse, whole blood): 3.5 h | blood levels, maximal values [3]: 42,520 ng/ml | time of maximal blood level [3]: 0.5 h | IC50 [4]: 1400 ± 100 nM

— patent publication US9539256B2 (THE BOARD OF REGENTS OF THE UNIVERSITY OF TEXAS SYSTEM, priority 2012, dated 2017)
